# Experimental data published in patent EP0819136B1, “MDP DERIVATIVES AND CONJUGATES HAVING HAEMATOPOIETIC FUNCTION STIMULATING ACTIVITY, AND COMPOSITIONS CONTAINING SAME” (VACSYN S.A., priority 1995, dated 1996).
# How the values were obtained:
# myélocytes circulants = test: Circulating myelocytes during two weeks of oral treatment, 4 days per week (Example 4, figure 11); format: in vivo, souris; settings: p.o. days 0, 1, 2, 3 and 7, 8, 9, 10; MDM 25 mg/kg, AZT 50 mg/kg or both
# Procedure: La figure 11 représente l'effet d'un traitement per os de souris pendant deux semaines consécutives (4 jours par semaine) avec l'AZT, le Muradimétide ou le mélange des deux sur le nombre des myélocytes circulants.
# La figure 11 montre l'effet d'un traitement par le MDM à 25 mg/kg (X), de l'AZT à 50 mg/kg (O) et du mélange des deux (□) sur le comptage des myélocytes de souris traitées pendant 2 semaines aux jours 0, 1, 2, 3 de la première semaine et 7, 8, 9, 10 de la deuxième semaine. […] Si l'effet est surtout marqué au niveau de la première semaine, cela montre que le traitement nécessite un certain espace de temps entre les différents cycles de traitement et que des traitements répétés pourraient, le cas échéant, être utiles.
# [1] = system: leucocytes circulants normaux (majoritairement neutrophiles et lymphocytes) et immatures (myélocytes); test: Circulating blood cell counts in mice after 4 consecutive days of i.v. Muradimétide alone (Example 1); format: in vivo, souris; settings: for Nbre de Leucocytes / Nbre de Lymphocytes / Nbre de Myélocytes / Nbre de Neutrophiles: Muradimétide 25 mg/kg i.v., 4 consecutive days
# Procedure: Le tableau 1 ci-dessous représente les numérations des leucocytes, neutrophiles, lymphocytes et myélocytes en fonction du temps après traitement par le Muradimétide seul administré à la dose de 25 mg/kg. Le traitement est effectué pendant 4 jours consécutifs par injection intraveineuse.
# Effet de 4 jours de traitement consécutifs des souris par voie veineuse avec le Muradimétide (25 mg/kg) sur les modifications du nombre de leucocytes circulants normaux (majoritairement neutrophiles et lymphocytes) et immatures (myélocytes).
# [2] = system: neutrophiles, leucocytes et myélocytes; test: Blood cell counts in mice given i.v. AZT 40 mg/kg plus Muradimétide i.v. or p.o. (Example 2); format: in vivo, souris CDI mâles
# Procedure: Le traitement par l'AZT seul induit classiquement une diminution du nombre des leucocytes et des neutrophiles circulants. Cette diminution est suivie par une reconstitution intervenant environ 4 à 7 jours après le début du traitement. Quand le Muradimétide a été administré par voie générale ou par la voie orale après un traitement par 40 mg/kg d'AZT, il n'y a pas de baisse du nombre de cellules et au contraire il y a une multiplication par au moins 1,5 du nombre de leucocytes et un triplement de celui des neutrophiles et cela dès après 4 jours. Les résultats sont représentés dans le tableau 2 ci-dessous.
# Des souris CDI mâles (5 par groupe) ont été injectées avec de l'AZT à la dose de 40 mg par kg aux jours 0 à 3. Le Muradimétide est administré les mêmes jours à la dose de 10 mg par kg en intraveineux ou de 50 mg par kg per os. Les comptages cellulaires sont réalisés au jour 0 (avant le traitement), et aux jours 3 et 4. Tableau 2
# [3] = AZT 40 mg/kg i.v. days 0-3 + Muradimétide i.v. 10mg/kg days 0-3, day 0 (before treatment)
# [4] = AZT 40 mg/kg i.v. days 0-3 + Muradimétide i.v. 10mg/kg days 0-3, day 3
# [5] = AZT 40 mg/kg i.v. days 0-3 + Muradimétide i.v. 10mg/kg days 0-3, day 4
# [6] = AZT 40 mg/kg i.v. days 0-3 + Muradimétide p.o 50 mg/Kg days 0-3, day 0 (before treatment)
# [7] = AZT 40 mg/kg i.v. days 0-3 + Muradimétide p.o 50 mg/Kg days 0-3, day 3
# [8] = AZT 40 mg/kg i.v. days 0-3 + Muradimétide p.o 50 mg/Kg days 0-3, day 4
# [9] = Muradimétide by general or oral route after AZT 40 mg/kg, after 4 days
smiles,measurement,setting,value
"COC(=O)CC[C@@H](NC(=O)[C@H](C)NC(=O)[C@@H](C)O[C@H]1[C@H](O)[C@@H](CO)OC(O)[C@@H]1NC(C)=O)C(=O)OC (stereo partly drawn) [Muradimétide, Nac-Mur-L-Ala-D-Glu-[OCH3]-OCH3]",effet sur la mobilisation des CHS (comptage des myélocytes),myélocytes circulants,effet significatif
same,Nbre de Leucocytes,[1]; day 0,50 ± 14° x 10^5/ml
same,Nbre de Lymphocytes,[1]; day 0,38±12 x 10^5/ml
same,Nbre de Myélocytes,[1]; day 0,7 ± 6 x 10^4/ml
same,Nbre de Neutrophiles,[1]; day 0,11±3 x 10^5/ml
same,Nbre de Leucocytes,[1]; day 2,52±12 x 10^5/ml
same,Nbre de Lymphocytes,[1]; day 2,41 ± 17 x 10^5/ml
same,Nbre de Myélocytes,[1]; day 2,8±8 x 10^4/ml
same,Nbre de Neutrophiles,[1]; day 2,10±3 x 10^5/ml
same,Nbre de Leucocytes,[1]; day 3,52 ± 17 x 10^5/ml
same,Nbre de Lymphocytes,[1]; day 3,35 ± 13 x 10^5/ml
same,Nbre de Myélocytes,[1]; day 3,40±5 x 10^4/ml
same,Nbre de Neutrophiles,[1]; day 3,13 ± 5 x 10^5/ml
same,Nbre de Leucocytes,[1]; day 4,52 ± 15 x 10^5/ml
same,Nbre de Lymphocytes,[1]; day 4,34 ± 8 x 10^5/ml
same,Nbre de Myélocytes,[1]; day 4,72 ± 27 x 10^4/ml
same,Nbre de Neutrophiles,[1]; day 4,12 ± 4 x 10^5/ml
same,Nbre de Leucocytes,[1]; day 7,50±13 x 10^5/ml
same,Nbre de Lymphocytes,[1]; day 7,38±10 x 10^5/ml
same,Nbre de Myélocytes,[1]; day 7,4 ± 4 x 10^4/ml
same,Nbre de Neutrophiles,[1]; day 7,12±4 x 10^5/ml
same,nombre de myélocytes circulants (result in words),"[1]; Muradimétide alone 25 mg/kg i.v., days 3 and 4",augmentation du nombre de myélocytes circulants qui est hautement significative
same,pourcentage de myélocytes ou de promyélocytes (result in words),"[2]; AZT 40 mg/kg i.v. + Muradimétide, whatever the route of administration",augmentation spectaculaire
same,Leucocytes,[2]; [3],6.0 ± 3.4 x 10^6/ml
same,Myelocytes,[2]; [3],5 ± 7 x 10^4 /ml
same,Neutrophiles,[2]; [3],2.0 ± 1.3 x 10^6 /ml
same,Leucocytes,[2]; [4],5.9 ± 2.9 x 10^6/ml
same,Myelocytes,[2]; [4],145 ± 83 x 10^4 /ml
same,Neutrophiles,[2]; [4],1.5 ± 0.8 x 10^6 /ml
same,Leucocytes,[2]; [5],7.6 ± 1.6 x 10^6/ml
same,Myelocytes,[2]; [5],117 ± 46 x 10^4 /ml
same,Neutrophiles,[2]; [5],4.6 ±1.5 x 10^6 /ml
same,Leucocytes,[2]; [6],4.8 ± 0.4 x 10^6/ml
same,Myelocytes,[2]; [6],14 ± 13 x 10^4 /ml
same,Neutrophiles,[2]; [6],1.4 ± 0.5 x 10^6 /ml
same,Leucocytes,[2]; [7],6.1 ± 1.4 x 10^6/ml
same,Myelocytes,[2]; [7],123 ± 55 x 10^4 /ml
same,Neutrophiles,[2]; [7],1.6 ± 0.5 x 10^6 /ml
same,Leucocytes,[2]; [8],8.1 ± 2.9 x 10^6/ml
same,Myelocytes,[2]; [8],138 ± 59 x 10^4 /ml
same,Neutrophiles,[2]; [8],4.3 ± 2.47 x 10^6 /ml
same,multiplication du nombre de leucocytes,[2]; [9],"≥ 1,5"
same,nombre de neutrophiles (fold change),[2]; [9],triplement
